Here are results for 13 molecules from ChEMBL document CHEMBL1131664, “Design and synthesis of potent and selective 5,6-fused heterocyclic thrombin inhibitors” (Bioorg Med Chem Lett, 1999).

One assay has as its target Prothrombin (Homo sapiens, UniProt P00734). Description: Inhibition of Coagulation factor II.
Assay [1] is described as follows: Inhibition of factor Xa.
The next assay addresses Serine protease 1 (Homo sapiens, UniProt P07477). Description: Inhibitory activity against trypsin.
A further assay has as its system Rattus norvegicus. Description: Effect on thrombus weight in rat vena cava thrombosis model (iv administration). Type of assay: functional.

Sequence of Serine protease 1 (P07477 whole entry): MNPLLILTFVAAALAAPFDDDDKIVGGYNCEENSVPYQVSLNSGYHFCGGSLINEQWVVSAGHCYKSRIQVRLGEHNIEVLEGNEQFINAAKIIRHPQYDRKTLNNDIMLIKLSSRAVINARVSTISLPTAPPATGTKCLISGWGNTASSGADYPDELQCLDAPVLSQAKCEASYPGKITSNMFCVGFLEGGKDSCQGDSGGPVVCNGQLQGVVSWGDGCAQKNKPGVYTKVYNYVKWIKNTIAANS

For the molecule `N=C(N)c1ccc2c(c1)c(CCO)cn2CC(=O)N1CCC(Cc2ccccc2)CC1`, the Ki on Prothrombin is 7 nM; in assay [1] it was 2400 nM; at Serine protease 1, 310 nM.
As for `N=C(N)c1ccc2c(ccn2CC(=O)N2CCC(C(=O)c3ccccc3)CC2)c1`, the figures for the inhibitory constant (Ki) (on Prothrombin; in assay [1]; at Serine protease 1) were more than 21000 nM, 9500 nM and more than 15000 nM, respectively.
Consider `N=C(N)c1ccc2c(ccn2CC(=O)N2CCC(Cc3cccc(F)c3)CC2)c1`, for which the Ki on Prothrombin turned out to be 24 nM; in assay [1] it was 11000 nM.
Consider `N=C(N)c1ccc2c(ccn2CC(=O)N2CCC(Cc3ccccc3)CC2)c1`, for which the Ki on Prothrombin was 18 nM; in assay [1], 10300 nM; on Serine protease 1 it was more than 15000 nM. In addition, the ID50 in the assay on Rattus norvegicus worked out at 0.8 mg/kg/h.
For `N=C(N)c1ccc2c(cnn2CC(=O)N2CCC(Cc3ccccc3)CC2)c1`, the values for the Ki (at Prothrombin; in assay [1]; at Serine protease 1) were 140 nM, 2900 nM and more than 6000 nM, respectively.
Taken in the same sequence, the figures for `COC(=O)Cc1cn(CC(=O)N2CCC(Cc3ccccc3)CC2)c2ccc(C(=N)N)cc12` were 7.4 nM, 400 nM and 140 nM.
With `N=C(N)c1ccc2c(c1)c(CC(=O)O)cn2CC(=O)N1CCC(Cc2ccccc2)CC1`, the Ki on Prothrombin was 19 nM; in assay [1], 3000 nM.
Molecule `CC(=O)N[C@H](Cc1ccccc1)C(=O)N1CCC[C@H]1C(=O)N[C@@H](CCCN=C(N)N)B(O)O` gave a Ki at Serine protease 1 of 9 nM. This molecule came in with an ID50 in the assay on Rattus norvegicus of 0.04 mg/kg/h.
Consider `N=C(N)c1ccc2c(ccn2CC(=O)N2CCC(C(O)c3ccccc3)CC2)c1` (stereo not given), for which the inhibitory constant (Ki) is more than 21000 nM at Prothrombin, 16000 nM in assay [1] and more than 15000 nM at Serine protease 1.
Regarding `N=C(N)c1ccc2c(ccn2CC(=O)N2CCC(Cc3ccccc3F)CC2)c1`, the Ki came out at 24 nM at Prothrombin and 23000 nM in assay [1].
In the case of `COC(=O)/C=C/c1cn(CC(=O)N2CCC(Cc3ccccc3)CC2)c2ccc(C(=N)N)cc12`, the figures for the Ki (on Prothrombin; in assay [1]; on Serine protease 1) were 28 nM, 1200 nM and 280 nM, respectively.
For `N=C(N)c1c[nH]c2cc(S(=O)(=O)N3CCC(Cc4ccccc4)CC3)ccc12`, in that order: 210 nM, 3300 nM and 1200 nM.
Turning to `N=C(N)c1ccc2c(c1)ncn2CC(=O)N1CCC(Cc2ccccc2)CC1`, the Ki amounted to 300 nM at Prothrombin and 25000 nM in assay [1].

One may read the Ki as the dissociation constant of the complex between target and ligand, obtained from inhibition or displacement. Lower therefore signals a stronger hold on the target.
